Measured values as given in patent US5219863A, “Angiotensin II antagonizing compounds containing a 1,5-naphthyridine or a quinoline moiety” (Imperial Chemical Industries PLC, priority 1990, dated 1993).
Where a name gives a salt, the structure may show the parent alone.

Tests used:
[1] = molecular target: T1, angiotensin II (AII) receptors, guinea pig adrenal gland membrane (Cavia porcellus, UniProt Q9WV26); assay: Test A: displacement of radiolabelled AII binding to guinea pig adrenal cell surface membranes; conditions: in vitro, read-out: IC50 (concentration for 50% displacement of radiolabelled AII binding)
T1 construct: from tissue; host or cells: guinea pig adrenal gland, cell surface membrane fraction
T1 sequence (Q9WV26 1-359): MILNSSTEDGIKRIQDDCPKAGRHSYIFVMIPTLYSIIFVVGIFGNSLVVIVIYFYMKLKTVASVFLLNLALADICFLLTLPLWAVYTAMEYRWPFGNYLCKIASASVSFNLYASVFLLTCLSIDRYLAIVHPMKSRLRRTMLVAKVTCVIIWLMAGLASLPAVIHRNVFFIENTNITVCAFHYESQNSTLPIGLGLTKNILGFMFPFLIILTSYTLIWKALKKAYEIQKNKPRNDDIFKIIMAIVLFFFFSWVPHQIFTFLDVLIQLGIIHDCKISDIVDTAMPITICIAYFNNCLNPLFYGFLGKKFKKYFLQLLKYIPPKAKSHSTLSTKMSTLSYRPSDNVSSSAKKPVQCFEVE
Method: (§1) The antagonism of one or more of the physiological actions of AII and, in particular, the antagonism of the interaction of AII with the receptors which mediate its effects on a target tissue, may be assessed using one or more of the following, routine laboratory procedures.
Test A: This in vitro procedure involves the incubation of the test compound initially at a concentration of 100 micromolar (or less) in a buffered mixture containing fixed concentrations of radiolabelled AII and a cell surface membrane fraction prepared from a suitable angiotensin target tissue. In this test, the source of cell surface membranes is the guinea pig adrenal gland which is well known to response to AII. Interaction of the radiolabelled AII with its receptors (assessed as radiolabel bound to the particulate membrane fraction following removal of unbound radiolabel by a rapid filtration procedure such as is standard in such studies) is antagonized by compounds which also bind to the membrane receptor sites and the degree of antagonism (observed in the test as displacement of membrane-bound radioactivity) is determined readily by comparing the receptor-bound radioactivity in the presence of the test compound at the specified test concentration with a control value determined in the absence of the test compound. […]

[2] = test system: pressor responses induced by AII; assay: Test C: antagonism of AII-induced pressor responses in terminally-anaesthetised or conscious rats; assay type: in vivo; conditions: iv, rat, i.v. administration, AII-induced pressor response
Description: as §1
Test C: This in vivo test involves using terminally-anaesthetised or conscious rats in which an arterial catheter has been implanted under anaesthesia for the measurement of changes in blood pressure. The AII antagonistic effects of the test compound following oral or parenteral administration, are assessed against pressor responses induced by AII. To ensure that the effect is specific the effect of the test compound on vasopressin-induced pressor responses may also be determined in the same preparation.

CCNC(=O)OCCOc1ccc2nc(CC)cc(OCc3ccc(-c4ccccc4-c4nn[nH]n4)cc3)c2n1 [Example 2, 2-ethyl-6-(2-ethylaminocarbonyloxy)ethoxy)-4-[(2'-(1H-tetrazol-5-yl)biphenyl-4-yl)methoxy]-1,5-naphthyridine hydrochloride]
IC50 [1]: 18 nM | ED50 [2]: 0.08 mg/kg
